Results: patent publication US20250361252A1 (EVER Neuro Pharma GmbH, priority 2022, published 2025)

Tests used:
[1] = in vivo; cited from earlier work
[2] = cited from earlier work
[3] = single dose; cited from earlier work
[4] = in NaCl solution; cited from earlier work
human hepatocytes = assay: Metabolic stability / conversion to apomorphine on incubation with human hepatocytes

## N[C@@H](Cc1ccc(O)c(O)c1)C(=O)O [L-dopa]
[1]
  plasma half-life: 1 to 1.5 h

## CN1CCc2cccc3c2[C@H]1Cc1ccc(O)c(O)c1-3 [apomorphine]
[2]; subcutaneous infusion therapy, meta-analysis
  incidence of nodule formation: 70%
[2]; subcutaneous infusion, within one year
  patients terminating therapy because of irritations: 70%
[3]
  duration of effect (mean): 40 min
[4]
  solubility: < 10 mg/mL

## Apomorphine Monophosphate Calcium Salt [VIR-1-097-Ca]
other
  solubility in water: Reduced solubility in water

## Apomorphine Monophosphate Potassium Salt [VIR-1-097-K]
other
  solubility in water: highly soluble in water

## apomorphine monophosphate
Human hepatocytes; cell-free negative control
  formation of apomorphine in cell-free control group: no significant formation of apomorphine
Human hepatocytes; human hepatocytes
  conversion of prodrug into apomorphine: rapidly converted into apomorphine
  half-life of apomorphine monophosphate: 33 min
  time of highest amount of apomorphine found: 10 min
Human hepatocytes; human hepatocytes, within 10 min
  apomorphine monophosphate converted to apomorphine: about 30%
Human hepatocytes; human hepatocytes, within 60 minutes
  apomorphine monophosphate consumed: about 75%
